Data as given in US5145848A, “Amino anthracenediones-bis platinum complexes, useful as antitumoral agents” (priority 1987, dated 1992).

Experiments:
[1] = test system: leukaemia P388; test: Antitumour activity against leukaemia P388 in rats CD2 F1, i.p. (Table I); assay type: in vivo; conditions: for MST / T/C % / TOX: day 1; for LTS (60 days): day 1, 60 days
Method: 10^5 leukaemic cells were injected at day 0 and the compounds were administered intraperitoneally the day after, defined as day 1 of the experiment.

[2] = test system: leukaemia L1210/CDDP; test: Effect on leukaemia L1210/CDDP (cis-platinum resistant) in rats CD2 F1, i.p. (Table II); assay type: in vivo, rats CD2 Fl; conditions: for MST / T/C %: day 1; for LTS (60 days): day 1, 60 days
Method: ^a) 10^5 cell/rat injected i.p. at day
Compounds were administered at day "1

[3] = test system: L1210/CDDP cells; test: In vitro growth inhibition of murine leukaemia L1210/CDDP (Table III); assay type: cell-based
Method: (§1) Effect of BBR 1939 on in vitro growth^b) of murine leukaemia^a)
(§2) ^a) 10^5 cells were plated in triplicate at time
(§3) ^b) means used: RPMI 1640 + 10 Y FCS (inactivated in warm) +
(§4) 2mercaptoethanol 10^-3 M
(§5) ^c) IC %: inhibition percentage of cellular growth (treated animals

[4] = test system: K562 cells; test: In vitro growth inhibition of human erythroleukosis K562 (Table III); assay type: cell-based
Method: as §1
L1210/CDDP and human erythroleukosis
K562 b - Comparison with CDDP:
as §2, §3, §4, §5

[5] = test system: human tumors; conditions: cited from earlier work

In the case of `O=C1c2c(O)ccc(O)c2C(=O)c2c(NCCNCCO)ccc(NCCNCCO)c21` [Mitoxanthrone], the MST ([1]; 3.75 mg/Kg) is reported as 32.5 days, the T/C % ([1]; 3.75 mg/Kg) is reported as 295% and the TOX ([1]; 3.75 mg/Kg) is reported as 0/7. The “LTS (60 days)” value ([1]; 3.75 mg/Kg) was 2/7, the MST ([1]; 11.1 mg/Kg) was 36.5 days and the T/C % ([1]; 11.1 mg/Kg) was 331%. For the same molecule, the TOX ([1]; 11.1 mg/Kg) was 0/7, the “LTS (60 days)” value ([1]; 11.1 mg/Kg) was 1/7 and the MST ([1]; 18.4 mg/Kg) was 42.5 days. The T/C % ([1]; 18.4 mg/Kg) was 386%, the TOX ([1]; 18.4 mg/Kg) was 0/7 and the “LTS (60 days)” value ([1]; 18.4 mg/Kg) was 1/7. The MST ([1]; 25.8 mg/Kg) was 40.5 days, the T/C % ([1]; 25.8 mg/Kg) was 368% and the TOX ([1]; 25.8 mg/Kg) was 1/7. The “LTS (60 days)” value ([1]; 25.8 mg/Kg) was 0/7.
In the case of `N.N.[Cl][Pt][Cl]` [cis-platinum, cis-diaminodichloroplatinum II], the MST ([1]; 6 mg/Kg) is reported as 22.5 days, the T/C % ([1]; 6 mg/Kg) is reported as 198% and the “LTS (60 days)” value ([1]; 6 mg/Kg) is reported as 0/7. For the same molecule, the MST ([1]; 10 mg/Kg) was 18.8 days, the T/C % ([1]; 10 mg/Kg) was 162% and the “LTS (60 days)” value ([1]; 10 mg/Kg) was 0/7. The MST ([1]; 14 mg/Kg) was 11.5 days, the T/C % ([1]; 14 mg/Kg) was 99% and the “LTS (60 days)” value ([1]; 14 mg/Kg) was 0/7. The MST ([2]; 5 mg/Kg) was 11.1 days, the T/C % ([2]; 5 mg/Kg) was 97% and the “LTS (60 days)” value ([2]; 5 mg/Kg) was 0/10. The MST ([2]; 7.5 mg/Kg) was 11.6 days, the T/C % ([2]; 7.5 mg/Kg) was 101% and the “LTS (60 days)” value ([2]; 7.5 mg/Kg) was 0/10. The MST ([2]; 12.5 mg/Kg) was 9.3 days, the T/C % ([2]; 12.5 mg/Kg) was 103% and the “LTS (60 days)” value ([2]; 12.5 mg/Kg) was 0/10. The “IC % (inhibition percentage of cellular growth)” value ([3]; 0.5 ug/ml, after 24 hours) was 20%, the “IC % (inhibition percentage of cellular growth)” value ([3]; 0.5 ug/ml, after 48 hours) was 8% and the “IC % (inhibition percentage of cellular growth)” value ([3]; 0.5 ug/ml, after 72 hours) was 37%. The “IC % (inhibition percentage of cellular growth)” value ([3]; 1 ug/ml, after 24 hours) was 30%, the “IC % (inhibition percentage of cellular growth)” value ([3]; 1 ug/ml, after 48 hours) was 18% and the “IC % (inhibition percentage of cellular growth)” value ([3]; 1 ug/ml, after 72 hours) was 44%. The “IC % (inhibition percentage of cellular growth)” value ([3]; 5 ug/ml, after 24 hours) was 54%, the “IC % (inhibition percentage of cellular growth)” value ([3]; 5 ug/ml, after 48 hours) was 87% and the “IC % (inhibition percentage of cellular growth)” value ([3]; 5 ug/ml, after 72 hours) was 84%. The “IC % (inhibition percentage of cellular growth)” value ([3]; 10 ug/ml, after 24 hours) was 78%, the “IC % (inhibition percentage of cellular growth)” value ([3]; 10 ug/ml, after 48 hours) was 92% and the “IC % (inhibition percentage of cellular growth)” value ([3]; 10 ug/ml, after 72 hours) was 86%. For the same molecule, the “IC % (inhibition percentage of cellular growth)” value ([3]; 50 ug/ml, after 24 hours) was 80%, the “IC % (inhibition percentage of cellular growth)” value ([3]; 50 ug/ml, after 48 hours) was 99% and the “IC % (inhibition percentage of cellular growth)” value ([3]; 50 ug/ml, after 72 hours) was 100%. For the same molecule, the “IC % (inhibition percentage of cellular growth)” value ([4]; 1 ug/ml, after 24 hours) was 22%, the “IC % (inhibition percentage of cellular growth)” value ([4]; 1 ug/ml, after 48 hours) was 52% and the “IC % (inhibition percentage of cellular growth)” value ([4]; 1 ug/ml, after 72 hours) was 54%. For the same molecule, the “IC % (inhibition percentage of cellular growth)” value ([4]; 5 ug/ml, after 24 hours) was 28%, the “IC % (inhibition percentage of cellular growth)” value ([4]; 5 ug/ml, after 48 hours) was 71% and the “IC % (inhibition percentage of cellular growth)” value ([4]; 5 ug/ml, after 72 hours) was 82%. For the same molecule, the “IC % (inhibition percentage of cellular growth)” value ([4]; 10 ug/ml, after 24 hours) was 35%, the “IC % (inhibition percentage of cellular growth)” value ([4]; 10 ug/ml, after 48 hours) was 76% and the “IC % (inhibition percentage of cellular growth)” value ([4]; 10 ug/ml, after 72 hours) was 87%. The “IC % (inhibition percentage of cellular growth)” value ([4]; 50 ug/ml, after 24 hours) was 52%, the “IC % (inhibition percentage of cellular growth)” value ([4]; 50 ug/ml, after 48 hours) was 85% and the “IC % (inhibition percentage of cellular growth)” value ([4]; 50 ug/ml, after 72 hours) was 91%. The “IC % (inhibition percentage of cellular growth)” value ([4]; 100 ug/ml, after 24 hours) was 56%, the “IC % (inhibition percentage of cellular growth)” value ([4]; 100 ug/ml, after 48 hours) was 85% and the “IC % (inhibition percentage of cellular growth)” value ([4]; 100 ug/ml, after 72 hours) was 91%. The clinical efficacy ([5]; clinical observation) was “Clinical observation confirms the efficacy of the compound in a number of human tumors” and the side effects ([5]; clinical) was “serious gastro-intestinal, renal side effects, hematologic and neurologic complications (ototoxicity)”.
